Columns and labels:
HCT116 = HCT116 growth inhibition assay; assay type: cell-based; settings: without formate
Protocol: Example 5. HCT116 Growth Inhibition and Formate Rescue Assays
3,000 Cells were plated in each well of a 96-well plate with 80 μL of DMEM media supplemented with 10% dFBS, and incubated for 24 hours. Drugs with or without sodium formate (1 mM) were then added to each well to a final volume of 100 μL. Cell growth was measured as fluorescence intensity by resazurin after four days. In short, resazurin was added to each well to a final concentration of 10 μg·mL^−1. After incubation for one hour, fluorescence was measured by a Synergy HT plate reader (BioTek Instruments).

[1] = Mouse liver microsome assay (metabolic stability); assay type: in vitro ADME; settings: mouse liver microsomes; for half-life at 2 µM: in vitro half-life
Protocol: Example 6. Mouse Liver Microsome Assay
Metabolic stability of several compounds in mouse liver microsomes was tested. Briefly, a master solution was prepared according to Table 31.
Two separate experiments were performed: an experiment with cofactors and an experiment without cofactors. In the experiment with cofactors 40 μL of 10 mM NADPH and 40 μL of 20 mM UDPGA were added to the incubations. The final concentrations of microsomes, NADPH and UDPGA were 0.5 mg/mL, 1 mM and 2 mM, respectively. In the experiment without cofactors 10 μL of 20 mg/mL liver microsomes and 80 μL of ultra-pure H2O were added to the incubations. The final concentration of microsomes was 0.5 mg/mL. The mixture was pre-warmed at 37° C. for 5 minutes.
The reaction was started with the addition of 4 μL of 200 μM control compound or test compound solutions. Verapamil was used as positive control in this study. The final concentration of test compound was 2 μM and the final concentration of control compound was 1 μM. The incubation solution was incubated in water bath at 37° C.
Aliquots of 50 μL were taken from the reaction solution at 0.5, 5, 15, 30, 45 and 60 minutes. The reaction was stopped by the addition of five volumes of cold acetonitrile with IS (100 nM alprazolam, 200 nM caffeine and 100 nM tolbutamide). Samples were centrifuged at 3,220 g for 40 minutes. Aliquot of 100 μL of the supernatant was mixed with 100 μL of ultra-pure H2O and then subject to LC-MS/MS analysis.
All calculations were carried out using Microsoft Excel. Peak areas were determined from extracted ion chromatograms. The slope value, k, was determined by linear regression of the natural logarithm of the remaining percentage of the parent drug versus incubation time curve. The in vitro half-life (in vitro t½) was determined from the slope value:
Conversion of the in vitro t1/2(min) into the in vitro intrinsic clearance (in vitro CLint, in μL/min/mg protein) was done using the following equation (mean of duplicate determinations): […]

| Structure (SMILES) | IC50 (HCT116) | also measured |
| --- | --- | --- |
| Cc1n[nH]c2c1C(c1cc(C#CC3CN(C(=O)OC(C)(O)O)C3)cc(COC(=O)C(N)C(C)O)c1)(C(C)C)C(C#N)=C(N)O2 (stereo not shown) [KDG-0294] | B″ |  |
| CC(=O)O[C@]1(C)CC[C@H](C#Cc2cc(CO)cc(C3(C(C)C)C(C#N)=C(N)Oc4[nH]nc(C)c43)c2)CC1 (stereo partly shown) [KDG-0272] | A″ |  |
| Cc1n[nH]c2c1C(c1cc(C#CC3CCOCC3)cc(CO)c1)(C(C)C)C(C#N)=C(N)O2 (stereo not shown) [KDG-0273] | B″ | half-life at 2 µM [1]: < 5 min |
| Cc1n[nH]c2c1C(c1cc(C#C[C@H]3C[C@@H](NC(=O)CN(C)C)C3)cc(CO)c1)(C(C)C)C(C#N)=C(N)O2 (stereo partly shown) [KDG-0554] | C″ |  |
| Cc1n[nH]c2c1C(c1cc(C#C[C@H]3C[C@@H](CO)C3)cc(C(C)(C)O)c1)(C(C)C)C(C#N)=C(N)O2 (stereo partly shown) [KDG-0260-100] | D″ |  |
| Cc1n[nH]c2c1C(c1cc(C#C[C@H]3C[C@@H](NCC(=O)N(C)C)C3)cc(CO)c1)(C(C)C)C(C#N)=C(N)O2 (stereo partly shown) [KDG-0530] | D″ |  |
| Cc1n[nH]c2c1C(c1cc(C#C[C@H]3C[C@@H](C(=O)N(C)C)C3)cc(CO)c1)(C(C)C)C(C#N)=C(N)O2 (stereo partly shown) [KDG-0265-100] | B″ |  |
| Cc1n[nH]c2c1C(c1cc(C#C[C@H]3C[C@H](C(C)(C)O)C3)cc(C(C)(C)O)c1)(C(C)C)C(C#N)=C(N)O2 (stereo partly shown) [KDG-0261] | C″ |  |
| COC(=O)N[C@H]1C[C@H](C#Cc2cc(CO)cc(C3(C(C)C)C(C#N)=C(N)Oc4[nH]nc(C)c43)c2)C1 (stereo partly shown) [KDG-0522-100] | B″ |  |
| Cc1n[nH]c2c1C(c1cc(C#CC3CCC(=O)CC3)cc(CO)c1)(C(C)C)C(C#N)=C(N)O2 (stereo not shown) [KDG-0270-100] | B″ |  |
| Cc1n[nH]c2c1C(c1cc(C#C[C@H]3C[C@@H](COC(N)=O)C3)cc(C(C)(C)O)c1)(C(C)C)C(C#N)=C(N)O2 (stereo partly shown) [KDG-0262-100] | C″ |  |
| Cc1nnc(N[C@H]2CC[C@H](C#Cc3cc(CO)cc(C4(C(C)C)C(C#N)=C(N)Oc5[nH]nc(C)c54)c3)CC2)o1 (stereo partly shown) [KDG-0518] | C″ |  |
| Cc1n[nH]c2c1C(c1cc(C#CC3(C)CN(C(=O)OC(C)(C)C)C3)cc(CO)c1)(C(C)C)C(C#N)=C(N)O2 (stereo not shown) [KDG-0300] |  | half-life at 2 µM [1]: 5 to 10 min; microsomal CLint at 2 µM ([1]; in vitro intrinsic clearance, read-out: Relative Clint): > 250 µL/min/mg |
| Cc1nnc(C23CC(C#Cc4cc(CO)cc(C5(C(C)C)C(C#N)=C(N)Oc6[nH]nc(C)c65)c4)(C2)C3)o1 (stereo not shown) [KDG-0573] | B″ |  |
| Cc1n[nH]c2c1C(c1cc(C#C[C@H]3C[C@@H](NC(=O)OC(C)C)C3)cc(CO)c1)(C(C)C)C(C#N)=C(N)O2 (stereo partly shown) [KDG-0520] | A″ |  |
| Cc1n[nH]c2c1C(c1cc(C#C[C@H]3C[C@H](NC(=O)CN(C)C)C3)cc(CO)c1)(C(C)C)C(C#N)=C(N)O2 (stereo partly shown) [KDG-0555] | C″ |  |
| COC(=O)N[C@H]1C[C@@H](C#Cc2cc(CO)cc(C3(C(C)C)C(C#N)=C(N)Oc4[nH]nc(C)c43)c2)C1 (stereo partly shown) [KDG-0522] | B″ |  |
| Cc1n[nH]c2c1C(c1cc(C#C[C@H]3C[C@@H](NC(=O)OC(C)(C)C)C3)cc(C(F)(F)F)c1)(C(C)C)C(C#N)=C(N)O2 (stereo partly shown) [KDG-0574] | B″ |  |
| CC(=O)OCC1CC(C#Cc2cc(CO)cc(C3(C(C)C)C(C#N)=C(N)Oc4[nH]nc(C)c43)c2)C1 (stereo not shown) [KDG-0266] | B″ |  |
| Cc1n[nH]c2c1C(c1cc(C#C[C@H]3C[C@H](C(=O)OC(C)(C)C)C3)cc(CO)c1)(C(C)C)C(C#N)=C(N)O2 (stereo partly shown) [KDG-0393] |  | half-life at 2 µM [1]: < 5 min |
| Cc1n[nH]c2c1C(c1cc(C#C[C@H]3C[C@@H](NC(=O)OCc4ccccc4)C3)cc(CO)c1)(C(C)C)C(C#N)=C(N)O2 (stereo partly shown) [KDG-0521] | A″ |  |
| Cc1nnc(N[C@H]2CC[C@@H](C#Cc3cc(CO)cc(C4(C(C)C)C(C#N)=C(N)Oc5[nH]nc(C)c54)c3)CC2)o1 (stereo partly shown) [KDG-0516] | C″ |  |

Second part, led by results:

| IC50 (HCT116) | Structure (SMILES) | also measured |
| --- | --- | --- |
| C″ | Cc1n[nH]c2c1C(c1cc(C#C[C@H]3C[C@@](C)(O)C3)cc(CO)c1)(C(C)C)C(C#N)=C(N)O2 (stereo partly shown) [KDG-0268] |  |
| C″ | Cc1n[nH]c2c1C(c1cc(C#CC3CCCN(C(=O)OC(C)(C)C)C3)cc(CO)c1)(C(C)C)C(C#N)=C(N)O2 (stereo not shown) [KDG-0288] |  |
| A″ | Cc1n[nH]c2c1C(c1cc(C#CC3CN(C(=O)OC(C)C)C3)cc(CO)c1)(C(C)C)C(C#N)=C(N)O2 (stereo not shown) [KDG-0416] |  |
| D″ | Cc1n[nH]c2c1C(c1cc(C#CC3CNC3)cc(CO)c1)(C(C)C)C(C#N)=C(N)O2 (stereo not shown) [KDG-0271-200] |  |
| B″ | COC(=O)N1CC(C#Cc2cc(CO)cc(C3(C(C)C)C(C#N)=C(N)Oc4[nH]nc(C)c43)c2)C1 (stereo not shown) [KDG-0281] |  |
| B″ | Cc1n[nH]c2c1C(c1cc(C#C[C@H]3C[C@@H](NC(=O)OCC(C)(C)C)C3)cc(CO)c1)(C(C)C)C(C#N)=C(N)O2 (stereo partly shown) [KDG-0524] |  |
| A″ | Cc1n[nH]c2c1C(c1cc(C#CC3CN(C(=O)OC(C)(C)C)C3)cc(COC(=O)C(C)C)c1)(C(C)C)C(C#N)=C(N)O2 (stereo not shown) [KDG-0293] |  |
| B″ | Cc1n[nH]c2c1C(c1cc(C#C[C@H]3C[C@@H](NC(=O)CC(C)(C)C)C3)cc(CO)c1)(C(C)C)C(C#N)=C(N)O2 (stereo partly shown) [KDG-0527] |  |
| C″ | Cc1n[nH]c2c1C(c1cc(C#CC34CC(C(=O)N(C)C)(C3)C4)cc(CO)c1)(C(C)C)C(C#N)=C(N)O2 (stereo not shown) [KDG-0558] |  |
| B″ | Cc1n[nH]c2c1C(c1cc(C#C[C@H]3C[C@](C)(NC(=O)OC(C)(C)C)C3)cc(CO)c1)(C(C)C)C(C#N)=C(N)O2 (stereo partly shown) [KDG-0387] |  |
| D″ | Cc1n[nH]c2c1C(c1cc(C#CC3CN(C(=O)OC(C)(C)C)C3)cc(CO)c1)(C(C)C)C(C#N)=C(N)O2 (stereo not shown) [KDG-0271-0-pk2] |  |
| B″ | Cc1n[nH]c2c1C(c1cc(C#CC3(C)CCN(C(=O)OC(C)(C)C)C3)cc(CO)c1)(C(C)C)C(C#N)=C(N)O2 (stereo not shown) [KDG-0304] |  |
| B″ | Cc1n[nH]c2c1C(c1cc(C#C[C@H]3C[C@@H](NC(=O)NC(C)(C)C)C3)cc(CO)c1)(C(C)C)C(C#N)=C(N)O2 (stereo partly shown) [KDG-0523] |  |
| B″ | Cc1n[nH]c2c1C(c1cc(C#C[C@H]3C[C@@H](NC(=O)C(C)(C)C)C3)cc(CO)c1)(C(C)C)C(C#N)=C(N)O2 (stereo partly shown) [KDG-0526] |  |
| B″ | Cc1n[nH]c2c1C(c1cc(C#CC3CCN(C(=O)OC(C)(C)C)C3)cc(CO)c1)(C(C)C)C(C#N)=C(N)O2 (stereo not shown) [KDG-0287] |  |
| B″ | COCC(C)(C)OC(=O)N1CC(C#Cc2cc(CO)cc(C3(C(C)C)C(C#N)=C(N)Oc4[nH]nc(C)c43)c2)C1 (stereo not shown) [KDG-0418] |  |
| B″ | CCC(C)(C)OC(=O)N1CC(C#Cc2cc(CO)cc(C3(C(C)C)C(C#N)=C(N)Oc4[nH]nc(C)c43)c2)C1 (stereo not shown) [KDG-0411] |  |
| D″ | Cc1n[nH]c2c1C(c1cc(C#CC3CN(C(=O)CN(C)C)C3)cc(CO)c1)(C(C)C)C(C#N)=C(N)O2 (stereo not shown) [KDG-0547] |  |
| B″ | CC(=O)O[C@]1(C)C[C@H](C#Cc2cc(CO)cc(C3(C(C)C)C(C#N)=C(N)Oc4[nH]nc(C)c43)c2)C1 (stereo partly shown) [KDG-0269] |  |
| A″ | Cc1n[nH]c2c1C(c1cc(C#CC3CN(C(=O)OC(C)(C)C)C3)cc(CO)c1)(C(C)C)C(C#N)=C(N)O2 (stereo not shown) [KDG-0271-0-pk1] |  |
| B″ | COC(=O)N1CCC(C)(C#Cc2cc(CO)cc(C3(C(C)C)C(C#N)=C(N)Oc4[nH]nc(C)c43)c2)CC1 (stereo not shown) [KDG-0308] |  |
| B″ | Cc1n[nH]c2c1C(c1cc(C#C[C@H]3C[C@@H](CNC(=O)OC(C)(C)C)C3)cc(CO)c1)(C(C)C)C(C#N)=C(N)O2 (stereo partly shown) [KDG-0395-100] |  |
| B″ | Cc1n[nH]c2c1C(c1cc(C#C[C@H]3C[C@H](NC(=O)OC(C)(C)C)C3)cc(CF)c1)(C(C)C)C(C#N)=C(N)O2 (stereo partly shown) [KDG-0390] |  |
| B″ | Cc1n[nH]c2c1C(c1cc(C#C[C@H]3C[C@H](NC(=O)OC(C)(C)C)C3)cc(CO)c1)(C(C)C)C(C#N)=C(N)O2 (stereo partly shown) [KDG-0385, tert-butyl N-[(1r,3r)-3-[2-(3-[6-amino-5-cyano-4-isopropyl-3-methyl-1H-pyrano[2,3-c]pyrazol-4-yl]-5-(hydroxymethyl)phenyl)ethynyl]cyclobutyl]carbamate] |  |
| B″ | CC(=O)OCc1cc(C#CC2CN(C(=O)OC(C)(C)C)C2)cc(C2(C(C)C)C(C#N)=C(N)Oc3[nH]nc(C)c32)c1 (stereo not shown) [KDG-0284] |  |
| B″ | Cc1n[nH]c2c1C(c1cc(C#C[C@H]3C[C@@H](NC(=O)OC(C)(C)C)C3)cc(CF)c1)(C(C)C)C(C#N)=C(N)O2 (stereo partly shown) [KDG-0383] |  |
| B″ | Cc1n[nH]c2c1C(c1cc(C#C[C@H]3C[C@H](C(C)(C)O)C3)cc(CO)c1)(C(C)C)C(C#N)=C(N)O2 (stereo partly shown) [KDG-0258-100] |  |
| B″ | Cc1n[nH]c2c1C(c1cc(C#C[C@H]3C[C@H](CNC(=O)OC(C)(C)C)C3)cc(CO)c1)(C(C)C)C(C#N)=C(N)O2 (stereo partly shown) [KDG-0395] |  |
